Patent US4933347A, “Diamidines and bis(imidazolines) for the treatment of and prophylaxis against pneumocystis carinii pneumonia” (University of North Carolina at Chapel Hill, priority 1988, dated 1990)

Assays:
[1] = intramuscular and intravenous routes; cited from earlier work
Pneumocystis carinii [2] = settings: in vivo; cited from earlier work
[3] = Toxicity of amidines in rats (standard laboratory procedure); format: in vivo; settings: dose as in value; else not given in Table XIII (10 mg/kg test dose)
Method: Compounds having the structure represented by Formula I were synthesized in accordance with the appropriate procedures discussed previously. The reaction schemes shown in Charts I-III specifically identify the methodology used to synthesize the compounds of the respective examples. The compounds which were synthesized are shown in Table IA and the elemental analysis and melting points of the compounds are shown in Table IB. Most of the compounds were tested for toxicity in rats using standard laboratory procedure and the results of that toxicity testing are shown in Table XII. The compounds of Examples 31, 32, and 34 were not synthesized but may be synthesized in the general manner discussed previously.

Pneumocystis carinii [4] = experiment: Treatment of Pneumocystis carinii pneumonia in Sprague-Dawley rats (extent of disease by histologic score); format: in vivo, male Sprague-Dawley rats; settings: for Extent of Disease by Histologic Score: number of animals with score 2: 5-10% lung involved or small foci of infection

Q: For N=C(N)c1ccc(OCCCCCOc2ccc(C(=N)N)cc2)cc1 [pentamidine isethionate], which “Side effects / toxicity in patients” value [1] is on record?
A: The value was “Some fatalities have been attributed to severe hypotension, hypoglycemia, and cardiac arrhythmias”.

Q: With N=C(N)c1ccc(OCCCCCOc2ccc(C(=N)N)cc2)cc1 [Example 12, Pentamidine, reference compound] as the compound, how does the “Known effectiveness against Pneumocystis carinii pneumonia” value (Pneumocystis carinii [2]) read?
A: The value was “effective in the treatment of, or prophylaxis against Pneumocystis carinii pneumonia”.

Q: What about the “Toxicity of amidines: Effect” value [3] of the same compound?
A: The value was “Some hypotension, edematous tails”.

Q: What about the “Extent of Disease by Histologic Score: number of animals with score 0.5” value (Pneumocystis carinii [4]; 0.1 mg/kg, 0.5 = <10 cysts found per 2 sections) of the same compound?
A: Its value is 0 animals.

Q: What about the “Extent of Disease by Histologic Score: number of animals with score 1” value (Pneumocystis carinii [4]; 0.1 mg/kg, 1 = scattered cysts, <5% of lung involved) of the same compound?
A: The value was 0 animals.

Q: What about the “Extent of Disease by Histologic Score: number of animals with score 2” value (Pneumocystis carinii [4]; 0.1 mg/kg, 2 = scattered cysts) of the same compound?
A: The value was 0 animals.

Q: And the “Extent of Disease by Histologic Score: number of animals with score 3” value (Pneumocystis carinii [4]; 0.1 mg/kg, 3 = scattered cysts, 10-50% of lung involved)?
A: Its value is 7 animals.

Q: What about the “Extent of Disease by Histologic Score: number of animals with score 4” value (Pneumocystis carinii [4]; 0.1 mg/kg, 4 = >50% of lung involved) of the same compound?
A: The value was 5 animals.

Q: And the “Extent of Disease by Histologic Score: number of animals with score 0.5” value (Pneumocystis carinii [4]; 1 mg/kg, 0.5 = <10 cysts found per 2 sections)?
A: The value was 1 animals.

Q: What about the “Extent of Disease by Histologic Score: number of animals with score 1” value (Pneumocystis carinii [4]; 1 mg/kg, 1 = scattered cysts, <5% of lung involved) of the same compound?
A: Its value is 0 animals.

Q: And the “Extent of Disease by Histologic Score: number of animals with score 2” value (Pneumocystis carinii [4]; 1 mg/kg, 2 = scattered cysts)?
A: The value was 3 animals.

Q: And the “Extent of Disease by Histologic Score: number of animals with score 3” value (Pneumocystis carinii [4]; 1 mg/kg, 3 = scattered cysts, 10-50% of lung involved)?
A: Its value is 5 animals.

Q: What about the “Extent of Disease by Histologic Score: number of animals with score 4” value (Pneumocystis carinii [4]; 1 mg/kg, 4 = >50% of lung involved) of the same compound?
A: Its value is 3 animals.

Q: What about the “Extent of Disease by Histologic Score: number of animals with score 4” value (Pneumocystis carinii [4]; 10 mg/kg i.v. daily, 14 days, 4 = >50% of lung involved with many intense areas of focal infection) of the same compound?
A: Its value is 0 animals.

Q: What about the “Extent of disease by histologic score (combined): number of animals in scoring group 0.5” value (Pneumocystis carinii [4]; Table XII composite, 10 mg/kg, 0.5 = <10 cysts found per 2 sections) of the same compound?
A: The value was 20 animals.

Q: What about the “Extent of disease by histologic score (combined): number of animals in scoring group 1” value (Pneumocystis carinii [4]; Table XII composite, 10 mg/kg, 1 = scattered cysts, <5% of lung involved) of the same compound?
A: The value was 26 animals.

Q: And the “Extent of disease by histologic score (combined): number of animals in scoring group 2” value (Pneumocystis carinii [4]; Table XII composite, 10 mg/kg, 2 = scattered cysts, 5-10% of lung involved)?
A: Its value is 12 animals.

Q: What about the “Extent of disease by histologic score (combined): number of animals in scoring group 3” value (Pneumocystis carinii [4]; Table XII composite, 10 mg/kg, 3 = scattered cysts, 10-50% of lung involved) of the same compound?
A: Its value is 2 animals.

Q: And the “Extent of disease by histologic score (combined): number of animals in scoring group 4” value (Pneumocystis carinii [4]; Table XII composite, 10 mg/kg, 4 = >50% of lung involved)?
A: Its value is 0 animals.
